According to PubChem BioAssay (NCI):
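Values below derive from 48-hour exposures of cells grown in 96-well plates, with endpoints linearly interpolated between the two concentrations bracketing the appropriate inhibition level. TGI: total growth inhibition.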

Assays:
Assay in all cases: NCI-60 cell line screen, 48 h
[1] = tested on: 786-0 renal
[2] = tested on: A498 renal
[3] = tested on: A549 NSCLC
[4] = tested on: ACHN renal
[5] = tested on: BT-549 breast
[6] = tested on: CAKI-1 renal
[7] = tested on: CCRF-CEM leukemia
[8] = tested on: COLO 205 colon
[9] = tested on: DU-145 prostate
[10] = tested on: EKVX NSCLC
[11] = tested on: HCC-2998 colon
[12] = tested on: HCT-116 colon
[13] = tested on: HCT-15 colon
[14] = tested on: HL-60(TB) leukemia
[15] = tested on: HOP-62 NSCLC
[16] = tested on: HOP-92 NSCLC
[17] = tested on: HS 578T breast
[18] = tested on: HT29 colon
[19] = tested on: IGROV1 ovarian
[20] = tested on: K-562 leukemia
[21] = tested on: KM12 colon
[22] = tested on: LOX IMVI melanoma
[23] = tested on: M14 melanoma
[24] = tested on: MALME-3M melanoma
[25] = tested on: MCF7 breast
[26] = tested on: MDA-MB-231 breast
[27] = tested on: MDA-MB-435
[28] = tested on: MDA-N
[29] = tested on: MOLT-4 leukemia
[30] = tested on: NCI-H226 lung
[31] = tested on: NCI-H23 lung
[32] = tested on: NCI-H460 lung
[33] = tested on: NCI-H522 lung
[34] = tested on: NCI/ADR-RES ovarian
[35] = tested on: OVCAR-3 ovarian
[36] = tested on: OVCAR-4 ovarian
[37] = tested on: OVCAR-5 ovarian
[38] = tested on: OVCAR-8 ovarian
[39] = tested on: PC-3 prostate
[40] = tested on: RPMI-8226 leukemia
[41] = tested on: RXF 393 renal
[42] = tested on: SF-268 CNS
[43] = tested on: SF-295 CNS
[44] = tested on: SF-539 CNS
[45] = tested on: SK-MEL-2 melanoma
[46] = tested on: SK-MEL-28 melanoma
[47] = tested on: SK-MEL-5 melanoma
[48] = tested on: SK-OV-3 ovarian
[49] = tested on: SN12C renal
[50] = tested on: SNB-19 CNS
[51] = tested on: SNB-75 CNS
[52] = tested on: SR leukemia
[53] = tested on: SW-620 colon
[54] = tested on: T-47D breast
[55] = tested on: TK-10 renal
[56] = tested on: U251 CNS
[57] = tested on: UACC-257 melanoma
[58] = tested on: UO-31 renal
[59] = tested on: UACC-62 melanoma

COc1cc2cc(C(=O)Nc3cc4n(n3)-c3ccccc3C4)[nH]c2c(OC)c1OC showed a TGI [1] of 17.8 µM, a TGI [2] of 50 µM and a TGI [3] of 7.63 µM. For the same compound, the TGI [4] was 17.6 µM, the TGI [5] was 3.57 µM and the TGI [6] was 6.3 µM. It also gave a TGI [7] of 3.42 µM, a TGI [8] of 9.45 µM and a TGI [9] of 14.3 µM. The TGI [10] was 11.5 µM, the TGI [11] was 21 µM and the TGI [12] was 9.65 µM. The TGI [13] was 9.61 µM, the TGI [14] was 6.1 µM and the TGI [15] was 6.43 µM. It also gave a TGI [16] of 16.6 µM, a TGI [17] of 16.4 µM and a TGI [18] of 25.5 µM. The TGI [19] was 9.79 µM, the TGI [20] was 14.9 µM and the TGI [21] was 7.83 µM. For the same compound, the TGI [22] was 12.7 µM, the TGI [23] was 6.86 µM and the TGI [24] was 6.43 µM. It also gave a TGI [25] of 14.1 µM, a TGI [26] of 19.3 µM and a TGI [27] of 5.28 µM. The TGI [28] was 8.52 µM, the TGI [29] was 2.2 µM and the TGI [30] was 3.95 µM. The TGI [31] was 10.5 µM, the TGI [32] was 7.1 µM and the TGI [33] was 4.13 µM. The TGI [34] was 3.86 µM, the TGI [35] was 11.8 µM and the TGI [36] was 6.16 µM. The TGI [37] was 17.8 µM, the TGI [38] was 3.78 µM and the TGI [39] was 10.4 µM. For the same compound, the TGI [40] was 3.14 µM, the TGI [41] was 50 µM and the TGI [42] was 15.1 µM. For the same compound, the TGI [43] was 11.6 µM, the TGI [44] was 17.8 µM and the TGI [45] was 8.39 µM. The TGI [46] was 9.66 µM, the TGI [47] was 5.23 µM and the TGI [48] was 19.4 µM. The TGI [49] was 25.6 µM, the TGI [50] was 27.6 µM and the TGI [51] was 13.9 µM. The TGI [52] was 11.5 µM, the TGI [53] was 19.1 µM and the TGI [54] was 2.39 µM. It also gave a TGI [55] of 9.27 µM, a TGI [56] of 22.7 µM and a TGI [57] of 9.26 µM. It also gave a TGI [58] of 6.8 µM.

O=[N+]([O-])c1ccc(Oc2c(Cl)cc(S(=O)(=O)/N=C(\NO)Nc3ccc(Cl)cc3)cc2Cl)c(Cl)c1 gave a TGI [1] of 27.8 µM, a TGI [2] of 25.9 µM and a TGI [3] of 32.1 µM. It also gave a TGI [4] of 28.2 µM, a TGI [5] of 29 µM and a TGI [6] of 28.3 µM. The TGI [7] was 98.4 µM, the TGI [8] was 35.5 µM and the TGI [9] was 26.8 µM. The TGI [10] was 28 µM, the TGI [11] was 31.2 µM and the TGI [12] was 26.2 µM. The TGI [13] was 32.1 µM, the TGI [14] was 51.7 µM and the TGI [15] was 30.3 µM. The TGI [16] was 31.2 µM, the TGI [17] was 36 µM and the TGI [18] was 30.5 µM. The TGI [20] was 35 µM, the TGI [21] was 28.4 µM and the TGI [22] was 37.8 µM. For the same compound, the TGI [23] was 30.1 µM, the TGI [24] was 28.3 µM and the TGI [25] was 34 µM. The TGI [26] was 36.7 µM, the TGI [27] was 31.3 µM and the TGI [28] was 28.9 µM. It also gave a TGI [29] of 25.6 µM, a TGI [30] of 48.3 µM and a TGI [31] of 34.5 µM. For the same compound, the TGI [32] was 37.2 µM, the TGI [33] was 26.4 µM and the TGI [34] was 51.4 µM. For the same compound, the TGI [35] was 24.7 µM, the TGI [36] was 25.9 µM and the TGI [37] was 35.5 µM. For the same compound, the TGI [38] was 54.1 µM, the TGI [39] was 26.7 µM and the TGI [40] was 34.3 µM. For the same compound, the TGI [41] was 26.5 µM, the TGI [42] was 29.6 µM and the TGI [43] was 31.1 µM. The TGI [44] was 36.7 µM, the TGI [45] was 35.7 µM and the TGI [46] was 47.6 µM. For the same compound, the TGI [47] was 31.3 µM, the TGI [49] was 27.4 µM and the TGI [50] was 30.6 µM. It also gave a TGI [52] of 32.6 µM, a TGI [53] of 80.3 µM and a TGI [54] of 67.7 µM. For the same compound, the TGI [55] was 29.7 µM, the TGI [56] was 30.8 µM and the TGI [57] was 30.8 µM. The TGI [59] was 27.5 µM and the TGI [58] was 26.5 µM.
